Where a name gives a salt, the structure may show the parent alone. Starred links: 1 amine or outer side, 2 acyl side, 3 side chain; linkers in the order of their positions; H or OH if unused. Positions of bridges follow the written chain, without caps; N, C: chain ends. Non-standard residues stand in square brackets, D forms with d. Residues, ends and D or L forms follow the SMILES beside them. Chains are numbered I, II in the order given. *: point of attachment. Actinocin(9to1) = Cc1c2oc3c(C)ccc(C(=O)[*:1])c3nc-2c(C(=O)[*:2])c(N)c1=O; NMeV = CN[C@H](C(=O)O)C(C)C; Cbz = O=C(OCc1ccccc1)*; Sar = CNCC(=O)O
Experiments:
[1] = tested on: protein synthesis in HeLa cells; assay: Protein synthesis inhibition in HeLa cells incubated with deuterium-labeled all amino acids (C-D signal); type: cell-based; conditions: 5 μM anisomycin
Description: FIGS. 34a-34i is a set of exemplary images based on SRS imaging of time-dependent de novo protein synthesis and drug-induced protein synthesis inhibition effect in live HeLa cells incubated in deuterium-labeled all amino acid medium. […] As a control, the amide I (1655 cm^−1) signal remains at a steady state over time (5 hrs—FIG. 34d, 12 hrs—FIG. 34e, 20 hrs—FIG. 34f). FIGS. 34g-34i illustrate ratio images between the SRS image at 2133 cm^−1 (newly synthesized proteins) and the SRS image at 1655 cm^−1 (the amide I band from total proteins), representing the relative new protein fraction with subcellular resolution at each time point (5 hrs—FIG. 34g, 12 hrs—FIG. 34h, 20 hrs—FIG. 34i). The bar represents the ratio ranging from low to high.
The effect of protein synthesis inhibition by chemical drugs can be further tested to validate that the detected C-D signal indeed derives from nascent proteins. […] (See, e.g., FIG. 34k). […] Thus, the detected C-D SRS signal (e.g., FIGS. 34a-34c) can originate from deuterium-labeled nascent proteins, which can vanish upon adding the protein synthesis inhibitor.

HeLa cells [2] = conditions: 2 mM methionine competing with 2 mM Hpg, live HeLa cells
Description: FIG. 12f illustrates live Hela cells incubated with 2 mM Hpg alone (alkyne-on) and with 2 mM methionine (Control). […] For FIG. 12b, FIG. 12d, and FIG. 12f, alkyne-off and amide images display the same set of cells as the alkyne-on images; lipid images capture the same cells as control images.
Sample preparation for SRS imaging of live cells and organisms. For all SRS imaging experiments of HeLa cells (e.g. FIGS. 12a-12j), cells were first Seeded on coverslips with a density of 1×10^5/mL in petri dishes with 2 mL DMEM culture medium for 20 h at 37° C. and 5% CO2. • 1) EdU experiment, DMEM culture medium was then changed to DMEM medium (FBS-free) for 24 h for cell cycle synchronization. After synchronization, medium was replaced back to DMEM culture medium and EdU (10 mM stock in PBS) was simultaneously added to a concentration of 100 μM for 15 h. • 2) EU experiment, EU (100 mM stock in PBS) was added to the DMEM culture medium directly to a concentration of 2 mM for 7 h. • 3) Hpg experiment, DMEM culture medium was then changed to methionine-deficient culture medium for 1 h, followed by supplying 2 mM Hpg (200 mM stock in PBS) in the medium for 24 h. • 4) Propargylcholine and EdU dual-color experiment, DMEM culture medium was changed to DMEM medium (FBS-free) for synchronization. […]

[3] = tested on: DNA synthesis in HeLa cells; assay: SRS imaging of EdU incorporation during de novo DNA synthesis, control with DNA synthesis inhibitor; type: cell-based; conditions: 10 mM hydroxyurea, 100 μM EdU, live HeLa cells
[4] = tested on: hippocampal neuronal cultures; assay: Pulse-chase imaging of proteome turnover in hippocampal neuronal cultures under proteasomal stress; type: cell-based
Description: Regular Medium of D12 hippocampal neuronal cultures was replaced by methionine-deficient medium containing 1 mM L-Homopropargylglycine (e.g., HPG, C10186, Invitrogen) for 12 h. The medium was then exchanged to fresh methionine-deficient medium containing 1 mM AHA with or without 10 μM MG132 (e.g., M7449 SIGMA) for another 10 h. Cells were fixed with 4% PFA for 20 min, permeabilized with 0.5% Triton for 15 min. The immuno-staining procedures were the same as described above. Then 1.25 μM MARS2228-azide with Click-iT® Cell Reaction Buffer was added to cells/slices to react with HPG for 20 min. After washing with PBS, 4 μM Alexa 647-alkyne with Click-iT® Cell Reaction Buffer was added to react with AHA for 20 min. Cells were washed with PBS before imaging.
6 technical replicates of 8-colour images were acquired from 3 independent neuronal co-cultures (e.g., the same condition as described above for FIGS. 48d1-48d5) for statistical presentation. […] Cross-checking 8-colour staining, the percentages of astrocytes with aggregations (e.g., the number of astrocytes with aggregations divided by the total number of astrocytes) and the percentages of neurons with aggregations (e.g., the number of neurons with aggregations divided by the total number of neurons) were calculated for each image sets. […]

[5] = tested on: RNA synthesis in HeLa cells; assay: SRS imaging of EU incorporation (RNA transcription), control with RNA synthesis inhibitor; type: cell-based; conditions: 200 nM actinomycin D, 2 mM EU, live HeLa cells
Source text: Next, we studied RNA transcription and turnover using the alkyne-tagged uridine analogue, 5-ethynyl uridine (EU)8 in Hela cells (e.g. FIG. 12a).

mouse ear tissue = assay: SRS imaging of drug delivery into mouse ear tissue
Source text: Sample preparation for drug delivery into mouse ear tissues. […] The amide (1655 cm^−1) and lipid (2845 cm^−1) images have been applied with linear spectral unmixing to eliminate cross talk before composition.
FIG. 17a depicts Raman spectra of a drug cream, Lamisil, containing 1% TH and mouse ear skin tissue. FIGS. 17b-17e illustrate SRS imaging of tissue layers from stratum corneum (z=4 μm) to viable epidermis (z=24 μm), sebaceous gland (z=48 μm) and subcutaneous fat (z=88 μm). To facilitate tissue penetration, DMSO solution containing 1% TH was applied onto the ears of an anesthetized live mouse for 30 min and the dissected ears are imaged afterwards. […] The composite images show protein (1655 cm^−1) and lipid (2845 cm^−1) distributions.
FIGS. 18a and 18b show SRS imaging of the viable epidermis layer (z=20 μm) and the sebaceous gland layer (z=40 μm). […] The composite images show both protein (1655 cm^−1) and lipid (2845 cm^−1) distributions.

HeLa cells [6] = assay: Alkyne-D-glucose uptake and competition in live HeLa cells (SRS); type: cell-based

## COc1ccc(C[C@H]2NC[C@H](O)[C@H]2OC(C)=O)cc1 [anisomycin]
[1]; HeLa cells, deuterium-labeled all amino acids
  C-D signal in the spontaneous Raman spectrum (2133 cm−1): absence of the C-D signal
[1]; compared with no inhibitor
  C-D SRS imaging signal of newly synthesized proteins: drastically weaker signal
[1]; versus non-drug treated counterpart
  total proteome signal (2940 cm−1 image): remains at a similar level

## CSCC[C@H](N)C(=O)O [methionine, L-methionine]
HeLa cells [2]
  Hpg signal (newly synthesized proteins): causes the signal to disappear

## NC(=O)NO [hydroxyurea]
[3]
  EdU signal (newly synthesized DNA): No EdU signal shows up

## CC(C)C[C@@H](C=O)NC(=O)[C@H](CC(C)C)NC(=O)[C@H](CC(C)C)NC(=O)OCc1ccccc1 [MG132] (Cbz-Leu-Leu-Leu-aldehyde)
[4]; 10 μM MG132, neuronal co-cultures, n=6
  cell type with proteome inclusions: proteome inclusions appeared mostly in astrocytes instead of neurons
[4]; 10 μM MG132 in the chase period, 10 h
  proteome turnover: retarded the proteome turnover

## Cc1c2oc3c(C)ccc(C(=O)N[C@@H]4C(=O)N[C@H](C(C)C)C(=O)N5CCC[C@H]5C(=O)N(C)CC(=O)N(C)[C@@H](C(C)C)C(=O)O[C@@H]4C)c3nc-2c(C(=O)N[C@@H]2C(=O)N[C@H](C(C)C)C(=O)N3CCC[C@H]3C(=O)N(C)CC(=O)N(C)[C@@H](C(C)C)C(=O)O[C@@H]2C)c(N)c1=O [actinomycin D] (I: T[dV]P[Sar][NMeV] / II: T[dV]P[Sar][NMeV]; ester I:1-I:C, II:1-II:C; linker I:N-II:N via Actinocin(9to1))
[5]
  EU alkyne-on signal (newly synthesized RNA): nearly disappears

## CN(C/C=C/C#CC(C)(C)C)Cc1cccc2ccccc12 [terbinafine hydrochloride]
Mouse ear tissue; 1% TH in DMSO, mouse ear, 30 min
  tissue penetration pathway: penetrates into tissues through the lipid phase
Mouse ear tissue; internal alkyne at 2230 cm−1, 1% TH applied 30 min
  depth of drug delivery imaged inside mouse ear tissue: about 100 μm

## C#CCOC1C(O)C(O)OC(CO)C1O [alkyne-D-glucose]
HeLa cells [6]; 32 mM, live HeLa cells, 10 min to 4 h
  glucose signal inside cells (uptake): increasing over time
HeLa cells [6]; D-glucose 10 mM, 50 mM and 100 mM
  alkyne-D-glucose signal under competition with regular D-glucose: decreases
HeLa cells [6]; L-glucose
  alkyne-D-glucose signal under competition with L-glucose: retained

Reference: US12038377B2, “Devices, compositions and methods for imaging with Raman scattering” (THE TRUSTEES OF COLUMBIA UNIVERSITY IN THE CITY OF NEW YORK, priority 2013, dated 2024)
